{"source": "patent US9840716B2", "about": "“Resveratrol-enriched rice and the use thereof” (REPUBLIC OF KOREA (MANAGEMENT: RURAL DEVELOPMENT …, priority 2012, dated 2017)", "key": {"[1]": {"tested_on": "animal models (mice) induced with a metabolic disease by a long-term high fat diet", "experiment": "Comparative measurement of blood glucose in animal models induced with a metabolic disease", "type": "in vivo, C57BL/6 inbred mice", "details": "12 weeks of feeding, compared with control or comparison groups", "from_the_text": "The effects of rice containing resveratrol of the present invention at high concentration on a metabolic disease were examined using animal models (mice) induced with a metabolic disease by a long-term high fat diet. Particularly, each of 15 C57BL/6 inbred mice was fed with a high fat diet for 12 weeks, thereby establishing models induced with a metabolic disease such as diabetes, obesity, hyperlipidemia, hypercholesterolemia, etc. Next, the feed produced from seeds of transformed rice or Dongjin rice was distributed to animals for 12 weeks. After 12 weeks of distribution, via blood sampling from a tail vein once every 3 weeks, blood glucose, cholesterol, etc., were analyzed, thereby examining the effects of resveratrol-enriched transgenic rice and transformed rice in animal models induced with a metabolic disease. As described above, after feeding feed for experimental animals, in which carbohydrate components were replaced with Dongjin rice and resveratrol-enriched transgenic rice to mice induced with a metabolic disease, the level of blood glucose was measured (FIG. 2). […] As described above, after feeding the feed, in which carbohydrate components were replaced with Dongjin rice and resveratrol-enriched transgenic rice, to mice with an induced metabolic disease, the level of blood glucose was measured (FIG. 5)."}, "yeasts": {"tested_on": "yeasts", "details": "on average, when resveratrol is added; cited from earlier work"}}, "data": [{"smiles": "Oc1ccc(C=Cc2cc(O)cc(O)c2)cc1", "note": "[resveratrol]", "values": [{"measurement": "blood glucose level (result in words)", "setting": "[1]", "result": "did not show a remarkable difference"}, {"measurement": "increase of the life span of yeasts", "setting": "yeasts", "result": 70, "unit": "%"}]}]}
